Data reported in US20110230367A1, “Amphiphilic Peptides Promoting Production of Target miRNA and Method of Regulating Production of Target miRNA” (SNU R&DB FOUNDATION, priority 2009, published 2011).
Where two headings read alike, the source gives them in different places.

Columns and labels:
Test in all cases: Dissociation constant by competitive fluorescence anisotropy with rhodamine-rev peptide probe
Format in all cases: binding
HBV (hairpin RNA) = details: Table 6
Protocol: (§1) The binding affinity between the peptide synthesized in <Example 1> and pre-miRNA from <Example 2> were measured by fluorescence anisotropy using competitive binding method. A rev peptide with rhodamine attached at the N-terminal was used as a fluorescent probe and LS-55 luminescence spectrometer from Perkin-Elmer was use for analysis. A constant temperature of 20° C. was maintained by a water bath. The fluorescent intensity was measured by of 200 nM of rhodamine-rev peptide was measured with an excitation wavelength at 550 nm (band path 10 nm) and detection at 580 nm (band path 10 nm). The integration time […]. Each experimental value is the mean value of 5 measurements. A 20 mM of HEPES{4-(2-hydroxyethyl)-1-piperazineethanesulfonic acid} buffer (pH 7.5) containing 140 mM NaCl, 5 mM KCl and 1 mM MgCl2 was used for measuring the dissociation constant. The dissociation constant was determined according to the Mathematical Formula 1 and using Kaledia graph.
(§2) A and Ao are the fluorescence anistropy in the presence or absence of RNA, whereas ΔA is the difference between these two values. [RNA]0 and [Rh-rev]0 are initial concentrations of RNA and rev peptide binding with rhodamine.
(§3) According the method described in <Example 3>, the dissociation constant between second generation peptide and 2 pre-miRNAs synthesized from <Example 2> was determined using fluorescent polarization detection method and fluorescent probe molecule.

IRES (hairpin RNA) = details: Table 6
Protocol: as §1, §2, §3

pre-let7a-1 = details: for Discrimination ratio pre-let7a-1 (in parenthesis): Kd against other RNA (HBV, IRES, other miRNAs)/Kd against target miRNA
Protocol: as §1, §2, §3

pre-miR16-1 = details: for Discrimination ratio pre-miR16-1 (in parenthesis): Kd against other RNA/Kd against target miRNA
Protocol: as §1, §2, §3

pre-miR24-1 = details: Table 6; for Discrimination ratio pre-miR24-1 (in parenthesis): Kd against other RNA/Kd against target miRNA
Protocol: as §1, §2, §3

[1] = Table 5, second generation peptides, read-out: Kd value against pre-let7a-1
[2] = Table 6, read-out: Kd pre-let7a-1
[3] = Table 5, second generation peptides, read-out: Kd value against pre-miR16-1
[4] = Table 6, read-out: Kd pre-miR16-1
[5] = Table 3, first generation peptides, 20° C., HEPES pH 7.5, read-out: Kd value with pre-let7a-1
[6] = Table 3, first generation peptides, 20° C., HEPES pH 7.5, read-out: Kd value with pre-miR16-1

| Sequence | Kd (HBV (hairpin RNA)) [pM] | Kd (IRES (hairpin RNA)) [pM] | Kd (pre-let7a-1; [1]) [pM] | Discrimination ratio pre-let7a-1 (in parenthesis) (pre-let7a-1; Table 6) | Kd (pre-let7a-1; [2]) [pM] | Kd (pre-miR16-1; [3]) [pM] | Discrimination ratio pre-miR16-1 (in parenthesis) (pre-miR16-1; Table 6) | Kd (pre-miR16-1; [4]) [pM] | Kd (pre-miR24-1) [pM] | Discrimination ratio pre-miR24-1 (in parenthesis) (pre-miR24-1) | Kd (pre-let7a-1; [5]) [pM] | Kd (pre-miR16-1; [6]) [pM] | also measured |
| --- | --- | --- | --- | --- | --- | --- | --- | --- | --- | --- | --- | --- | --- |
| LKKLLKLLKKLWKWAG [Peptide 2j, Ac-LKKLLKLLKKLWKWAG, 21] | 350 | 850 | 370 | 1.0 | 370 | 440 | 1.4 | 440 | 270 | 1.9 | – | – | – |
| LKKLLKWLKKLLKLAG [Peptide 1d, Ac-LKKLLKWLKKLLKLAG] | – | – | – | – | – | – | – | – | – | – | 640 | 1800 | – |
| LKKLLKLLKKWLKWAG [Peptide 2i, Ac-LKKLLKLLKKWLKWAG, 20] | 820 | 1200 | 310 | 4.4 | 310 | 470 | 1.6 | 470 | 530 | 1.2 | – | – | – |
| WKKLLKLLKKLLKWAG [Peptide 2e, Ac-WKKLLKLLKKLLKWAG, 16] | 340 | 760 | 220 | 1.7 | 900 | 280 | 2.3 | 280 | 840 | 0.50 | – | – | discrimination ratio for pre-miR16-1 (pre-miR16-1; against other RNAs): 2.3 |
| LKKLLKLLKKLLKLAG [Peptide 1, Ac-LKKLLKLLKKLLKLAG] | – | – | 17000 | – | – | 12000 | – | – | – | – | 17000 | 12000 | – |
| LKKLLKLLKKLWKLAG [Peptide 1g, Ac-LKKLLKLLKKLWKLAG] | – | – | – | – | – | – | – | – | – | – | 250 | 560 | – |
| LKKLWKLLKKLLKLAG [Peptide 1c, Ac-LKKLWKLLKKLLKLAG] | – | – | – | – | – | – | – | – | – | – | 410 | 560 | – |
| LKKLLKLLKKLLKWAG [Peptide 1h, Ac-LKKLLKLLKKLLKWAG] | – | – | – | – | – | – | – | – | – | – | 110 | 400 | binding with pre-let7a-1 (pre-let7a-1): significant increase in binding affinity; increase in binding affinity compared to the peptide with no tryptophan substitution (peptide 1) (pre-let7a-1; pre-miRNA not named, values fit pre-let7a-1): 150 times; binding with pre-miR16-1 (pre-miR16-1): significant increase in binding affinity |
| LKKLLKLLKKWLKLAG [Peptide 1f, Ac-LKKLLKLLKKWLKLAG] | – | – | – | – | – | – | – | – | – | – | 320 | 480 | – |
